Like-named read-outs stand apart in the source and are kept apart here. Values belong to the compound of their own block, whether it stands above or below them.
Legend:
[1] = tested on: clinical strains of HIV-1; assay: AZT and ddI sensitivity of clinical strains of HIV-1 (Table 3); type: cell-based
Protocol: To determine the preclinical range of anti-HIV activity of various oligonucleotides of the invention (see TABLE 2), evaluations were performed with Oligo 12 (having SEQ ID NO:1), Oligo 32 (SEQ ID NO:3) and Oligo 41 (SEQ ID NO:6). These evaluations were performed to determine the activity of these compounds against a variety of wild type and drug resistant strains of HIV 1, including both laboratory derived and low passage, clinical strains of virus and T lymphocyte tropic and monocyte macrophage tropic viruses such as those listed below in TABLE 3.

[2] = tested on: low passage, clinical strains of HIV-1; assay: Anti-HIV activity in fresh human peripheral blood mononuclear cells; type: cell-based; conditions: fresh human PBMC; varies from strain to strain
Protocol: In another experiment, the anti-HIV activity of Oligos 12, 32, and 41 was evaluated against a variety of low passage, clinical strains of HIV-1 in fresh human peripheral blood mononuclear cells. These strains include viruses obtained from pediatric patients attending the Children's Hospital University of Alabama at Birmingham as well as viruses representative of the various HIV-1 clades found throughout the world, shown below in TABLE 4.
Fresh human peripheral blood lymphocytes (PBL) were isolated from voluntary Red Cross donors, seronegative for HIV and HBV. Leukophoresed blood was diluted 1:1 with Dulbecco's phosphate buffered saline (PBS), layered over 14 ml of Ficoll-Hypaque density gradient in a 50 ml centrifuge tube. Tubes were then centrifuged for 30 minutes at 600×g. Banded PBLs were gently aspirated from the resulting interface and subsequently washed 2× with PBS by low speed centrifugation. After final wash, cells were enumerated by trypan blue exclusion and re-suspended at 1×10^7/ml in RPMI 1640 with 15% Fetal Bovine Serum (FBS), 2 mM L-glutamine, […] PHA-P and allowed to incubate for 48–72 hours at 37° C. After incubation, PBLs were centrifuged and reset in RPMI 1640 with 15% FBS, 2 mM L-glutamine, 100 U/ml penicillin, 100 μg/ml streptomycin, 10 μg/ml gentamycin, and 20 U/ml recombinant human IL-2. PBLs were maintained in this medium at a concentration of 1–2×10^6/ml with bi-weekly medium changes, until use in assay protocol. […]
In the standard PBL assay (MOI: 0.2), the assay was ended on day 7 following collection of cell free supernatant samples for reverse transcriptase activity assay. In the low MOI PBL assay (MOI: 0.02), supernatant samples were collected on day 6, day 11, and day 14 post-infection and analyzed for RT activity. […] Opti-Fluor O was added to each sample and incorporated radioactivity was quantified utilizing a liquid scintillation counter, (Wallac 1450 Microbetaplus, Gaithersburg, Md.).

HIV-1 (IIIB, RF and SK1) = assay: XTT-based anti-HIV assay, laboratory strains of HIV-1; type: cell-based
Excerpt: (§1) The initial experiment performed involved evaluation of Oligos 12, 32, and 41 against three laboratory strains of HIV-1 (IIIB, RF and SK1) and one strain of HIV-2 (ROD) in parallel with the positive control compound ddC in the XTT-based anti-HIV assay. All these oligonucleotides are active against both HIV-1 and HIV-2.
CEM-SS sells (AIDS Research and Reference Reagent Program, NIH) or other established human T cell lines used in these experiments were passaged in T-150 flasks for use in the assay. On the day preceding the assay, the cells were split 1:2 to assure they would be in an exponential growth phase at time of infection. On the day of assay the cells were washed twice with tissue culture medium and resuspended in fresh tissue cultures medium. Total cell and viability counting was performed using a hemacytometer and trypan blue dye exclusion. Cell viability was greater than 95% for the cells to be utilized in the assay. The cells were pelleted and resuspended at 2.5×10^4 cells per ml in tissue culture medium. […]
A pretitered aliquot of virus was removed from the freezer −80° C.) and allowed to thaw slowly to room temperature in a biological safety cabinet. The virus was resuspended and diluted into tissue culture medium such that the amount of virus added to each well in a volume of 50 μl will be the amount determined to give complete cell killing at 6 days post-infection. […]
After 6 days of incubation at 37° C. in a 5% CO2 incubator, the test plates were analyzed by staining with the tetrazolium dye XTT. XTT-tetrazolium is metabolized by the mitochondrial enzymes of metabolically active cells to a soluble formazan product, allowing the rapid quantitative analysis of the inhibition of HIV-induced cell killing by anti-HIV test substances. […]
XTT solution was prepared daily as a stock of 1 mg/ml in PBS. […] Adhesive plate sealers were used in place of the lids, the sealed plate was inverted several times to mix the soluble formazan product and the plate was read spectrophotometrically at A450 nm with a Molecular Devices Vmax plate reader.

[3] = tested on: monocyte-macrophage-tropic strains BaL and ADA; assay: Anti-HIV assay in fresh human monocyte-macrophages; type: cell-based, HIV-1
Protocol: In addition to these T-tropic strains, the activity of the compounds was also evaluated against the monocyte-macrophage strains BaL and ADA. Oligos 12 and 32 according to the invention, as well as Oligo 41 are active against low passage clinical T-tropic strains of HIV-1. The activity of the compounds varies from strain to strain. The compounds were not active against the monocyte-macrophage-tropic strains BaL and ADA.
For isolation of adherent cells, 3×10^6 non-PHA stimulated peripheral blood cells were resuspended in Hanks buffered saline (with calcium and magnesium) supplemented with 10% human AB serum. The cells were placed in a 24-well microtiter plate at 37° C. for 2 hours. Non-adherent cells were removed by vigorously washing six times. The adherent cells were cultured for 7 days in RPMI 1640 tissue culture medium with 15% fetal bovine serum. The cultures were carefully monitored for confluency during this incubation period. Infection of the cells was performed with the monocytotropic HIV-1 strains BaL or ADA and the matched pair of AZT-sensitive and AZT-resistant virus isolates. Each of these virus isolates was obtained from the NIAID AIDS Research and Reference Reagent Program. High titer pools of each of these viruses have been harvested from infected cultures of peripheral blood adherent cells and frozen in 1.0 ml aliquots at −80° C. Monocyte-macrophage monolayers were infected at an MOI of 0.1. Compounds to be evaluated in the monocyte-macrophage assay are added to the monolayers shortly before infection in order to maximize the potential for identifying active compounds.
At 2 days post-infection, the medium was decanted and the cultures washed twice with complete medium in order to remove excess virus. […] Control curves are generated in each assay to accurately quantify the amount of capsid protein in each sample. Data was obtained by spectrophotometric analysis at 450 nm using a plate reader (Molecular Devices Vmax). P24 concentrations were calculated from the optical density values by use of the Molecular Device software package Soft Max.

HIV-2 (ROD) = assay: XTT-based anti-HIV assay, HIV-2; type: cell-based; conditions: XTT assay
Excerpt: as §1
CEM-SS sells (AIDS Research and Reference Reagent Program, NIH) or other established human T cell lines used in these experiments were passaged in T-150 flasks for use in the assay. On the day preceding the assay, the cells were split 1:2 to assure they would be in an exponential growth phase at time of infection. On the day of assay the cells were washed twice with tissue culture medium and resuspended in fresh tissue cultures medium. Total cell and viability counting was performed using a hemacytometer and trypan blue dye exclusion. Cell viability was greater than 95% for the cells to be utilized in the assay. The cells were pelleted and resuspended at 2.5×10^4 cells per ml in tissue culture medium. Cells were added to the drug-containing plates in a volume of 50 μl.
A pretitered aliquot of virus was removed from the freezer −80° C.) and allowed to thaw slowly to room temperature in a biological safety cabinet. The virus was resuspended and diluted into tissue culture medium such that the amount of virus added to each well in a volume of 50 μl will be the amount determined to give complete cell killing at 6 days post-infection. In general the virus pools produced with the IIIB isolate of HIV required the addition of 5 μl of virus per well.
Each plate contained cell control wells (cells only), virus control wells (cells plus virus), drug toxicity control wells (cells plus drug only), drug colorimetric control wells (drug only) as well as experimental wells (drug plus cells plus virus).
After 6 days of incubation at 37° C. in a 5% CO2 incubator, the test plates were analyzed by staining with the tetrazolium dye XTT. XTT-tetrazolium is metabolized by the mitochondrial enzymes of metabolically active cells to a soluble formazan product, allowing the rapid quantitative analysis of the inhibition of HIV-induced cell killing by anti-HIV test substances. On day 6 post-infection plates were removed from the incubator and observed. The use of round bottom microtiter plates allows rapid macroscopic analysis of the activity of a given test compound by the evaluation of pellet size. The results of the macroscopic observations were confirmed and enhanced by further microscopic analysis.
XTT solution was prepared daily as a stock of 1 mg/ml in PBS. Phenazine methosulfate (PMS) solution was prepared at 15 mg/ml in PBS and stored in the dark at −20° C. XTT/PMS stock was prepared immediately before use by diluting the PMS 1:100 into PBS and adding 40 μl per ml of XTT solution. Fifty microliters of XTT/PMS was added to each well of the plate and the plate was incubated for an additional 4 hours at 37° C. Adhesive plate sealers were used in place of the lids, the sealed plate was inverted several times to mix the soluble formazan product and the plate was read spectrophotometrically at A450 nm with a Molecular Devices Vmax plate reader.

Compound: O=c1[nH]cnc2c1ncn2[C@H]1CC[C@@H](CO)O1 [ddi, dideoxyinosine]
IC50 ([1]; isolate BAKI, tropism L, read-out: ddi IC50): 2610 nM
IC50 ([1]; isolate ROJO, tropism L, read-out: ddi IC50): 870 nM
IC50 ([1]; isolate ROMA, tropism M, read-out: ddi IC50): 160 nM
IC50 ([1]; isolate SLKA, tropism M, read-out: ddi IC50): 320 nM
IC50 ([1]; isolate STDA, tropism L, read-out: ddi IC50): 230 nM
IC50 ([1]; isolate TEKI, tropism L, read-out: ddi IC50): 370 nM
IC50 ([1]; isolate TEKI, tropism M, read-out: ddi IC50): 1700 nM
IC50 ([1]; isolate VIHU, tropism L, read-out: ddi IC50): 1210 nM
IC50 ([1]; isolate WEJO, tropism L, read-out: ddi IC50): 2180 nM
IC50 ([1]; isolate WOME, tropism L, read-out: ddi IC50): 410 nM

IC50 ([1]; Human immunodeficiency virus 1, isolate BAKI, tropism L, read-out: AZT IC50): 49 nM
IC50 ([1]; Human immunodeficiency virus 1, isolate BLCH, tropism L, read-out: AZT IC50): 10 nM
IC50 ([1]; Human immunodeficiency virus 1, isolate DEJO, tropism L, read-out: AZT IC50): 15 nM
IC50 ([1]; Human immunodeficiency virus 1, isolate RIARL, tropism L, read-out: AZT IC50): 10 nM
IC50 ([1]; Human immunodeficiency virus 1, isolate ROJO, tropism L, read-out: AZT IC50): 16 nM
IC50 ([1]; Human immunodeficiency virus 1, isolate ROMA, tropism M, read-out: AZT IC50): 16 nM
IC50 ([1]; Human immunodeficiency virus 1, isolate SLKA, tropism M, read-out: AZT IC50): 25 nM
IC50 ([1]; Human immunodeficiency virus 1, isolate STDA, tropism L, read-out: AZT IC50): 17 nM
IC50 ([1]; Human immunodeficiency virus 1, isolate TEKI, tropism L, read-out: AZT IC50): 29 nM
IC50 ([1]; Human immunodeficiency virus 1, isolate TEKI, tropism M, read-out: AZT IC50): 16 nM
IC50 ([1]; Human immunodeficiency virus 1, isolate VIHU, tropism L, read-out: AZT IC50): 16 nM
IC50 ([1]; Human immunodeficiency virus 1, isolate WEJO, tropism L, read-out: AZT IC50): 56 nM
IC50 ([1]; Human immunodeficiency virus 1, isolate WOME, tropism L, read-out: AZT IC50): 16 nM
Compound: Cc1cn([C@H]2C[C@H](N=[N+]=[N-])[C@@H](CO)O2)c(=O)[nH]c1=O [AZT, 3′-azido-3′-deoxythymidine]

Compound: CGCACCCATCTCTCTCCUUCU (chemistry not given here) [Oligo 32]
activity against low passage clinical T-tropic strains of HIV-1 [2]: active
activity against HIV-1 (HIV-1 (IIIB, RF and SK1)): active
activity against monocyte-macrophage-tropic strains BaL and ADA [3]: not active
level of activity against the HIV-2 strain ROD (HIV-2 (ROD); compared with the HIV-1 strains): enhanced level of activity
activity against HIV-2 (HIV-2 (ROD); strain ROD): active

From patent publication US7173014B2, “HIV-specific synthetic oligonucleotides and methods of their use” (priority 1997, dated 2007)
